These molecules were tested against T1, USP28 (USP28-5(1-1077)-TEV-6*His; LifeSensors) (Homo sapiens, UniProt Q96RU2) (assay: Ubiquitin-Rhodamine 110 Assay for USP28 Activity, Example A-1(b)). Conditions: Ubiquitin-Rhodamine 110 assay, Example A-1(b).
T1 construct: construct USP28 (USP28-5(1-1077)-TEV-6*His; LifeSensors); TEV cleavage site (C); 6xHis (C); purchased LifeSensors
T1 sequence (Q96RU2 1-1077): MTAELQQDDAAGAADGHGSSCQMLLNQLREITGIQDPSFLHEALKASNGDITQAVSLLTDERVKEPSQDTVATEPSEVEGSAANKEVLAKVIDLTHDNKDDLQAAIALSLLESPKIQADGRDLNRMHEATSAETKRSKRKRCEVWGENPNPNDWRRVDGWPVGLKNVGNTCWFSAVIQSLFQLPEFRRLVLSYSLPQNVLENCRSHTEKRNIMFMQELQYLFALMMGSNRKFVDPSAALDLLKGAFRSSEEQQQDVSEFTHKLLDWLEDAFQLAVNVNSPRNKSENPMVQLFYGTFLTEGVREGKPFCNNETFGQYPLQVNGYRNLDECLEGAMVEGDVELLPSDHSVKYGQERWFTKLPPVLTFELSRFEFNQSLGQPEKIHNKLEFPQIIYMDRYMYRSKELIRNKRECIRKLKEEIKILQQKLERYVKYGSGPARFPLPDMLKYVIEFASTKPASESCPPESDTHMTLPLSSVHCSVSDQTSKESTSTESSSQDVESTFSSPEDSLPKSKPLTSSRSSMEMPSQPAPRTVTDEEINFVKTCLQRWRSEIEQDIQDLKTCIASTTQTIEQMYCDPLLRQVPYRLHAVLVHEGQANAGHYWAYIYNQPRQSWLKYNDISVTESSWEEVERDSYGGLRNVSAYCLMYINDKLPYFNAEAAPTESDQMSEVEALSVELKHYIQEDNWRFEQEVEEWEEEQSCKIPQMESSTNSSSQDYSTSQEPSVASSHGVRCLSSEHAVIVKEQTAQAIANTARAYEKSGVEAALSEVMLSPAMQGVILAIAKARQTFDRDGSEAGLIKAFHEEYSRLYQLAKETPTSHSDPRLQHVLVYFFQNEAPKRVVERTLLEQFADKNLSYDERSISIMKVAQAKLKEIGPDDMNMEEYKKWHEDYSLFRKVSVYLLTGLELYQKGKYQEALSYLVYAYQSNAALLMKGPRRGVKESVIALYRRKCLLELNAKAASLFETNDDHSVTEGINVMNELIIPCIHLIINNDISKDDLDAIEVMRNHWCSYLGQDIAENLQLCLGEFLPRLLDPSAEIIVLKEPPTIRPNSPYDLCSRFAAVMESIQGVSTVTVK
Format: biochemical
Method in brief: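 Single-point screening used 10 μM compound with 90 min room-temperature incubation; follow-up dose-responses (25 μM top, 3-fold) used 75 pM USP28 1-1077 construct, 30 min compound preincubation, 25 nM Ub-Rh110, 20 min reaction, citric acid quench. Rh110 fluorescence normalised to no-enzyme and DMSO controls; IC50 from 4-parameter logistic fit.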

Row | SMILES | USP28 A-1(b) IC50 range
1 | O=C(N[C@H]1COc2cc(N3CCNCC3)ccc2C1)c1cnn2ccccc12 [Example 460, (R)-N-(7-(piperazin-1-yl)chroman-3-yl)pyrazolo[1,5-a]pyridine-3-carboxamide] | + (>2 μM)
2 | O=C(N[C@H]1COc2cc(N3CCNCC3)ccc2C1)c1cnn2cc(Cl)ccc12 [Example 462, (R)-6-chloro-N-(7-(piperazin-1-yl)chroman-3-yl)pyrazolo[1,5-a]pyridine-3-carboxamide] | + (>2 μM)
3 | Cc1cc(C)n2ncc(C(=O)N[C@H]3COc4cc(N5CCNCC5)ccc4C3)c2n1 [Example 463, (R)-5,7-dimethyl-N-(7-(piperazin-1-yl)chroman-3-yl)pyrazolo[1,5-a]pyrimidine-3-carboxamide] | + (>2 μM)
4 | O=C(N[C@H]1COc2cc(N3CCNCC3)ccc2C1)c1ccc(NCc2cccc(Cl)c2)nc1 [Example 467, (R)-6-((3-chlorobenzyl)amino)-N-(7-(piperazin-1-yl)chroman-3-yl)nicotinamide] | ++ (0.2-2 μM)
5 | O=C(N[C@H]1COc2cc(N3CCNCC3)ccc2C1)c1ccc(NCc2cccnc2)nc1 [Example 468, (R)-N-(7-(piperazin-1-yl)chroman-3-yl)-6-((pyridin-3-ylmethyl)amino)nicotinamide] | + (>2 μM)
6 | O=C(N[C@H]1COc2cc(N3CCNCC3)ccc2C1)c1ccc(NCc2cccc(C(F)(F)F)c2)nc1 [Example 469, (R)-N-(7-(piperazin-1-yl)chroman-3-yl)-6-((3-(trifluoromethyl)benzyl)amino)nicotinamide] | ++ (0.2-2 μM)
7 | O=C(N[C@H]1COc2cc(N3CCNCC3)ccc2C1)c1ccc(NCc2ccccn2)nc1 [Example 470, (R)-N-(7-(piperazin-1-yl)chroman-3-yl)-6-((pyridin-2-ylmethyl)amino)nicotinamide] | + (>2 μM)
8 | O=C(N[C@H]1COc2cc(N3CCNCC3)ccc2C1)c1ccc(NCc2ccc3c(c2)OCCO3)nc1 [Example 471, (R)-6-(((2,3-dihydrobenzo[b][1,4]dioxin-6-yl)methyl)amino)-N-(7-(piperazin-1-yl)chroman-3-yl)nicotinamide] | + (>2 μM)
9 | O=C(N[C@H]1COc2cc(N3CCNCC3)ccc2C1)c1ccc(NCc2ccc3c(c2)CCO3)nc1 [Example 472, (R)-6-(((2,3-dihydrobenzofuran-5-yl)methyl)amino)-N-(7-(piperazin-1-yl)chroman-3-yl)nicotinamide] | ++ (0.2-2 μM)
10 | CC(=O)Nc1cccc(CNc2ccc(C(=O)N[C@H]3COc4cc(N5CCNCC5)ccc4C3)cn2)c1 [Example 473, (R)-6-((3-acetamidobenzyl)amino)-N-(7-(piperazin-1-yl)chroman-3-yl)nicotinamide] | + (>2 μM)

— patent US11524966B1 (Valo Early Discovery, Inc., priority 2017, dated 2022)
